In patent publication US20080003438A1, “Heterocyclic siloxanes for use in biocidal coatings and materials” (Auburn University, priority 2002, published 2008):

What was measured:
[1] = Laundry washing cycles (AATCC Test Method 61, Test 2A), chlorine loading after washing; assay type: physicochemical; details: for Average Chlorine Loading %: cotton
Description: Finally, a wash test was performed on swatches of cotton containing the monomer 3-triethoxysilylpropyl-5,5-dimethylhydantoin coating and the polysiloxane coating, each chlorinated and unchlorinated, for comparison purposes. Two treatment baths were prepared, one containing an 8% solution of 3-triethoxysilylpropyl-5,5-dimethylhydantoin in a 50% solution of ethanol in water, the other containing an 8% solution of siloxane polymer prepared as described above in a 66.7% solution of ethanol in water. Identical cotton swatches were soaked in the two baths for 2.5 minutes at ambient temperature, cured in air at 130° C. for 20 minutes, soaked in 1.5% liquid detergent at ambient temperature for 15 minutes, rinsed thoroughly with water, and dried in air at 50° C. for 30 minutes. Then one-half of the swatches of each type were chlorinated by soaking them in 5% CLOROX at ambient temperature for 45 minutes. These chlorinated samples were rinsed thoroughly with water and dried in air at 50° C. for 30 minutes to remove all occluded free chlorine. Iodometric/thiosulfate titrations were performed on representative samples to determine initial chlorine loadings. The average chlorine loading for the silane monomer-coated samples was 0.61%; for the siloxane polymer-coated samples, the average chlorine loading was 0.40%. Then all types of coated swatches were subjected to laundry washing cycles using AATCC Test Method 61 (Test 2A Procedure). Samples were evaluated after 5, 10, and 50 washing cycles for retention of the coatings. Those samples not chlorinated before washing were chlorinated by the procedure described above in order to assess how much chlorine could be loaded after variable numbers of washing cycles. Those chlorinated before washing were divided into two groups with half being assessed for chlorine loading without rechlorination, the other half being rechlorinated and then assessed for chlorine loading. Three observations are clearly evident from the data in Table 3. First, both the silane and the siloxane coatings are partially lost upon successive washings. Second, prechlorination reduces the rate of loss, probably due to increasing the hydrophobicity of the surface, thus reducing the rate of hydrolysis loss of the siloxane coatings. Third, the siloxane coating, which is not chlorinated to as high a level as the silane one upon initial chlorination, is lost at a slower rate than is the silane coating. For all of the coatings, at least partial biocidal efficacy would be regenerated upon rechlorination after 50 washing cycles. Most probably, a low concentration of bleach added to washing cycles should maintain biocidal activity of the cotton material for the lifetime of the material.
Finally, 100% cotton fabric swatches were tested. In this case 10 mL of the refluxed solution of polymer (the solid was not isolated) were mixed with 100 mL of a 50% ethanol/50% water solution in a beaker. The cotton swatches (7 g) were soaked in the solution for 3 minutes, then partially dried in air at ambient temperature, and then cured at 150° C. for 30 minutes. After soaking in 5% CLOROX for 20 minutes, the swatches were rinsed and dried at ambient temperature. The average chlorine loading of several swatches was determined by iodometric/thiosulfate titration to be 0.438% Cl. Then the other treated swatches were subjected to laundry washing cycles using AATCC Test Method 61 (Test 2A Procedure) followed by analytical determination of chlorine loading as a function of the number of wash cycles. After 5, 10, and 50 wash cycles the chlorine loadings averaged 0.282%, 0.279%, and 0.165%, respectively.

[2] = tested on: spores of Bacillus subtilis; test: Anti Bacillus spore activity of chlorine charged coated surfaces; assay type: cell-based; details: 96 hours
Description: Soft and hard surfaces were treated by exposure to solutions of 3-triethoxysilylpropyl-5,5-dimethylhydantoin, prepared as described in Example 1, and charged with chlorine as described in Example 11. Challenge inocula for the detection of activity versus bacterial spores were prepared from suspensions of spores of Bacillus subtilis. Recovery of viable organisms from challenged surfaces was done on TSA plates, and enumeration was accomplished by the plate dilution method.

CCO[Si](CCCN1C(=O)NC(C)(C)C1=O)(OCC)OCC [3-triethoxysilylpropyl-5,5-dimethylhydantoin]
bound chlorine retained ([1]; cotton cloth, after 50 wash cycles): about 34%
Average Chlorine Loading % ([1]; chlorination before washing No, after washing Yes, 5 washing cycles): 0.26%
Average Chlorine Loading % ([1]; chlorination before washing No, after washing Yes, 10 washing cycles): 0.15%
Average Chlorine Loading % ([1]; chlorination before washing No, after washing Yes, 50 washing cycles): 0.03%
Average Chlorine Loading % ([1]; chlorination before washing Yes, after washing No, 5 washing cycles): 0.42%
Average Chlorine Loading % ([1]; chlorination before washing Yes, after washing No, 10 washing cycles): 0.41%
Average Chlorine Loading % ([1]; chlorination before washing Yes, after washing No, 50 washing cycles): 0.10%
Average Chlorine Loading % ([1]; chlorination before washing Yes, after washing Yes, 5 washing cycles): 0.394%
Average Chlorine Loading % ([1]; chlorination before washing Yes, after washing Yes, 10 washing cycles): 0.388%
Average Chlorine Loading % ([1]; chlorination before washing Yes, after washing Yes, 50 washing cycles): 0.133%
reduction in viable B. subtilis spore counts ([2]; cellulose sponge): > 5 logs
reduction in viable B. subtilis spore counts ([2]; cotton and polyester): > 2 logs
reduction in viable B. subtilis spore counts ([2]; hard surfaces (marble, vinyl, porcelain)): up to 4 logs
